The values below come from patent US12448388B2, “PRMT5 inhibitors and uses thereof” (Gilead Sciences, Inc., priority 2023, dated 2025).

Where only a bound is given, the exact number is not on record here.

For the first assay, the system named is HCT116 MTAP-deleted cell lines. Briefly: Cell viability assay (CellTiter-Glo, 7 days), HCT116 MTAP-deleted. It is filed as cell-based. As to conditions: Homo sapiens, HCT-116. The method, boiled down: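 Dose-response, PRMT5 inhibitors from DMSO serial dilution, pre-spotted; cells seeded onto compound plates. 7 d, 37 °C/5% CO2/90% RH. Readout: CTG luminescence → CC50.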
For orientation: In ATP-based viability assays light output follows the ATP content of the culture.
As a reminder, the CC50 is the concentration at which the toxic effect on the cells reaches its halfway point. The compound `Nc1nc2cc(F)c(C(=O)N3CCC4(CC4)CC3c3ccc(C(F)(F)F)cn3)cc2n2cncc12` (stereo not shown) [Ff-225, (4-amino-7-fluoroimidazo[1,5-a]quinoxalin-8-yl)(5-(5-(trifluoromethyl)pyridin-2-yl)-6-azaspiro[2.5]octan-6-yl)methanone] displayed a CC50 of 100 to 1000 nM.

Staying with this assay, now noted: Homo sapiens, HCT-116; cell viability, HCT116 MTAP-deleted; class symbols; read-out: CC50.
Turning to `Nc1nc2cnc(C(=O)N3CCO[C@@H]4Cc5cc(OC(F)(F)F)c(F)cc5[C@@H]43)cc2n2cncc12` [Ff-178, (4-aminoimidazo[1,5-a]pyrido[3,4-e]pyrazin-8-yl)((4aS,9aR)-6-fluoro-7-(trifluoromethoxy)-2,3,9,9a-tetrahydroindeno[2,1-b][1,4]oxazin-4(4aH)-yl)methanone], the CC50 was less than 100 nM.

Turning to `Cc1ncc2c(N)nc3cnc(C(=O)N4CCO[C@@H]5Cc6cc(OC(F)(F)F)c(F)cc6[C@@H]54)cc3n12` [Ff-179, (4-amino-1-methylimidazo[1,5-a]pyrido[3,4-e]pyrazin-8-yl)((4aS,9aR)-6-fluoro-7-(trifluoromethoxy)-2,3,9,9a-tetrahydroindeno[2,1-b][1,4]oxazin-4(4aH)-yl)methanone], the CC50 is less than 100 nM.

For `Cc1ncn2c1c(N)nc1cnc(C(=O)N3CCO[C@@H]4Cc5cc(OC(F)(F)F)c(F)cc5[C@@H]43)cc12` [Ff-180, (4-amino-3-methylimidazo[1,5-a]pyrido[3,4-e]pyrazin-8-yl)((4aS,9aR)-6-fluoro-7-(trifluoromethoxy)-2,3,9,9a-tetrahydroindeno[2,1-b][1,4]oxazin-4(4aH)-yl)methanone], the CC50 is less than 100 nM.

On to `Nc1nc2cc(F)c(C(=O)N3CCO[C@@H]4Cc5cc(OC(F)(F)F)ccc5[C@@H]43)cc2n2cncc12` [Ff-181, (4-amino-7-fluoroimidazo[1,5-a]quinoxalin-8-yl)((4aS,9aR)-7-(trifluoromethoxy)-2,3,9,9a-tetrahydroindeno[2,1-b][1,4]oxazin-4(4aH)-yl)methanone], for which the CC50 is less than 100 nM.

Take `Nc1nc2cnc(C(=O)N3CCO[C@@H]4Cc5cc(OC(F)(F)F)ccc5[C@@H]43)cc2n2cncc12` [Ff-182, (4-aminoimidazo[1,5-a]pyrido[3,4-e]pyrazin-8-yl)((4aS,9aR)-7-(trifluoromethoxy)-2,3,9,9a-tetrahydroindeno[2,1-b][1,4]oxazin-4(4aH)-yl)methanone]: the CC50 is less than 100 nM.

For the compound `C[C@@H]1CN(C(=O)c2cc3c(cc2F)nc(N)c2cncn23)[C@H]2c3ccc(-c4cnn(C(F)F)c4)c(F)c3C[C@H]2O1` [Ff-199, (4-amino-7-fluoroimidazo[1,5-a]quinoxalin-8-yl)((2R,4aS,9aR)-7-(1-(difluoromethyl)-1H-pyrazol-4-yl)-8-fluoro-2-methyl-2,3,9,9a-tetrahydroindeno[2,1-b][1,4]oxazin-4(4aH)-yl)methanone], the CC50 was less than 100 nM.

In the case of `C[C@H]1CN(C(=O)c2cc3c(cc2F)nc(N)c2cncn23)[C@H]2c3ccc(-c4cnn(C(F)F)c4)c(F)c3C[C@H]2O1` [Ff-200, (4-amino-7-fluoroimidazo[1,5-a]quinoxalin-8-yl)((2S,4aS,9aR)-7-(1-(difluoromethyl)-1H-pyrazol-4-yl)-8-fluoro-2-methyl-2,3,9,9a-tetrahydroindeno[2,1-b][1,4]oxazin-4(4aH)-yl)methanone], the CC50 was less than 100 nM.

Regarding `Nc1nc2ccc(C(=O)N(Cc3ccc(C(F)(F)F)cc3F)C34CC(C3)C4)cc2n2cncc12` [Ff-202, 4-amino-N-(bicyclo[1.1.1]pentan-1-yl)-N-(2-fluoro-4-(trifluoromethyl)benzyl)imidazo[1,5-a]quinoxaline-8-carboxamide], the CC50 was 100 to 1000 nM.

For the compound `CN(C(=O)c1ccc2nc(N)c3cncn3c2c1)[C@@H]1COc2cc(-c3cnn(C(F)(F)F)c3)ccc21` [Ff-203, (S)-4-amino-N-methyl-N-(6-(1-(trifluoromethyl)-1H-pyrazol-4-yl)-2,3-dihydrobenzofuran-3-yl)imidazo[1,5-a]quinoxaline-8-carboxamide], the CC50 was less than 100 nM.

With `Cn1cc(-c2ccc(CN(C(=O)c3cc4c(cc3F)nc(N)c3cncn34)C34CC(C3)C4)c(F)c2)cn1` [Ff-204, 4-amino-N-(bicyclo[1.1.1]pentan-1-yl)-7-fluoro-N-(2-fluoro-4-(1-methyl-1H-pyrazol-4-yl)benzyl)imidazo[1,5-a]quinoxaline-8-carboxamide], the CC50 is less than 100 nM.

As for `Nc1nc2cc(F)c(C(=O)N(Cc3ccc(-c4cnn(C(F)F)c4)cc3F)C34CC(C3)C4)cc2n2cncc12` [Ff-205, 4-amino-N-(bicyclo[1.1.1]pentan-1-yl)-N-(4-(1-(difluoromethyl)-1H-pyrazol-4-yl)-2-fluorobenzyl)-7-fluoroimidazo[1,5-a]quinoxaline-8-carboxamide], the CC50 was less than 100 nM.

`CN(C(=O)c1cc2c(cc1F)nc(N)c1cncn12)C1CCc2nc(Cl)ccc21` (stereo not shown) [Ff-208, 4-amino-N-(2-chloro-6,7-dihydro-5H-cyclopenta[b]pyridin-5-yl)-7-fluoro-N-methylimidazo[1,5-a]quinoxaline-8-carboxamide]: the CC50 is 100 to 1000 nM.

Consider `CN(C(=O)c1cc2c(cc1F)nc(N)c1cncn12)C1CCc2nc(Br)ccc21` (stereo not shown) [Ff-209, 4-amino-N-(2-bromo-6,7-dihydro-5H-cyclopenta[b]pyridin-5-yl)-7-fluoro-N-methylimidazo[1,5-a]quinoxaline-8-carboxamide], for which the CC50 was in the range of 100 to 1000 nM.

In the case of `Nc1nc2cc(F)c(C(=O)N(Cc3ccc(-c4cnn(C(F)(F)F)c4)cn3)C34CC(C3)C4)cc2n2cncc12` [Ff-211, 4-amino-N-(bicyclo[1.1.1]pentan-1-yl)-7-fluoro-N-((5-(1-(trifluoromethyl)-1H-pyrazol-4-yl)pyridin-2-yl)methyl)imidazo[1,5-a]quinoxaline-8-carboxamide], the CC50 was less than 100 nM.

In the case of `Nc1nc2cc(F)c(C(=O)N(Cc3ccc(-c4cnn(C(F)F)c4)cn3)C34CC(C3)C4)cc2n2cncc12` [Ff-212, 4-amino-N-(bicyclo[1.1.1]pentan-1-yl)-N-((5-(1-(difluoromethyl)-1H-pyrazol-4-yl)pyridin-2-yl)methyl)-7-fluoroimidazo[1,5-a]quinoxaline-8-carboxamide], the CC50 is less than 100 nM.

Take `CN(C(=O)c1cc2c(cc1F)nc(N)c1cncn12)[C@@H]1COc2cc(-c3cnn(C)c3)ccc21` [Ff-214, (S)-4-amino-7-fluoro-N-methyl-N-(6-(1-methyl-1H-pyrazol-4-yl)-2,3-dihydrobenzofuran-3-yl)imidazo[1,5-a]quinoxaline-8-carboxamide]: the CC50 was less than 100 nM.

As for `CC(C)N(Cc1ccc(-c2ccnn2C(F)(F)F)cc1F)C(=O)c1cc2c(cc1F)nc(N)c1cncn12` [Ff-216], the CC50 was less than 100 nM.

On to `CC(C)N(Cc1ccc(-c2ccnn2C)cc1F)C(=O)c1cc2c(cc1F)nc(N)c1cncn12` [Ff-217, 4-amino-7-fluoro-N-(2-fluoro-4-(1-methyl-1H-pyrazol-5-yl)benzyl)-N-isopropylimidazo[1,5-a]quinoxaline-8-carboxamide], for which the CC50 is less than 100 nM.

Take `Nc1nc2cc(F)c(C(=O)N(Cc3ccc(-c4ccnn4C(F)(F)F)cc3F)C34CC(C3)C4)cc2n2cncc12` [Ff-218, 4-amino-N-(bicyclo[1.1.1]pentan-1-yl)-7-fluoro-N-(2-fluoro-4-(1-(trifluoromethyl)-1H-pyrazol-5-yl)benzyl)imidazo[1,5-a]quinoxaline-8-carboxamide]: the CC50 is less than 100 nM.

In the case of `Cn1nccc1-c1ccc(CN(C(=O)c2cc3c(cc2F)nc(N)c2cncn23)C23CC(C2)C3)c(F)c1` [Ff-219, 4-amino-N-(bicyclo[1.1.1]pentan-1-yl)-7-fluoro-N-(2-fluoro-4-(1-methyl-1H-pyrazol-5-yl)benzyl)imidazo[1,5-a]quinoxaline-8-carboxamide], the CC50 was less than 100 nM.

`Cn1cc(N(Cc2ccc(-c3cnn(C(F)(F)F)c3)cc2F)C(=O)c2cc3c(cc2F)nc(N)c2cncn23)cn1` [Ff-220, 4-amino-7-fluoro-N-(2-fluoro-4-(1-(trifluoromethyl)-1H-pyrazol-4-yl)benzyl)-N-(1-methyl-1H-pyrazol-4-yl)imidazo[1,5-a]quinoxaline-8-carboxamide]: the CC50 is less than 100 nM.

Regarding `Cn1cc(N(Cc2ccc(-c3cnn(C(F)F)c3)cc2F)C(=O)c2cc3c(cc2F)nc(N)c2cncn23)cn1` [Ff-221, 4-amino-N-(4-(1-(difluoromethyl)-1H-pyrazol-4-yl)-2-fluorobenzyl)-7-fluoro-N-(1-methyl-1H-pyrazol-4-yl)imidazo[1,5-a]quinoxaline-8-carboxamide], the 50% cytotoxic concentration (CC50) is less than 100 nM.

For `Nc1nc2cc(F)c(C(=O)N3CC(F)(F)CCC3c3ccc(C(F)(F)F)cn3)cc2n2cncc12` (stereo not shown) [Ff-222, (4-amino-7-fluoroimidazo[1,5-a]quinoxalin-8-yl)(5,5-difluoro-2-(5-(trifluoromethyl)pyridin-2-yl)piperidin-1-yl)methanone], the CC50 was less than 100 nM.

Turning to `Nc1nc2cc(F)c(C(=O)N3CCC(F)(F)CC3c3ccc(C(F)(F)F)cn3)cc2n2cncc12` (stereo not shown) [Ff-223, (4-amino-7-fluoroimidazo[1,5-a]quinoxalin-8-yl)(4,4-difluoro-2-(5-(trifluoromethyl)pyridin-2-yl)piperidin-1-yl)methanone], the CC50 was 100 to 1000 nM.

With `C[C@@H]1CCN(C(=O)c2cc3c(cc2F)nc(N)c2cncn23)C(c2ccc(C(F)(F)F)cn2)C1` (stereo partly drawn) [Ff-224, (4-amino-7-fluoroimidazo[1,5-a]quinoxalin-8-yl)((4R)-4-methyl-2-(5-(trifluoromethyl)pyridin-2-yl)piperidin-1-yl)methanone], the CC50 was in the range of 100 to 1000 nM.

On to `Nc1nc2cc(F)c(C(=O)N(Cc3ccc(C(F)(F)F)cc3F)c3ncco3)cc2n2cncc12` [Ff-226, 4-amino-7-fluoro-N-(2-fluoro-4-(trifluoromethyl)benzyl)-N-(oxazol-2-yl)imidazo[1,5-a]quinoxaline-8-carboxamide], for which the CC50 was less than 100 nM.

For the compound `Nc1nc2cc(F)c(C(=O)N(Cc3ccc(C(F)(F)F)cc3F)c3cnsc3)cc2n2cncc12` [Ff-227, 4-amino-7-fluoro-N-(2-fluoro-4-(trifluoromethyl)benzyl)-N-(isothiazol-4-yl)imidazo[1,5-a]quinoxaline-8-carboxamide], the CC50 was less than 100 nM.
